Experimental findings from ChEMBL document CHEMBL4400531, “Structure-Based Design of N-(5-Phenylthiazol-2-yl)acrylamides as Novel and Potent Glutathione S-Transferase Omega 1 Inhibitors” (J Med Chem, 2019) are described below.

The test system of one series is HT-29. Briefly: cells. The note with it: Homo sapiens, HT-29, 72 h.
Series [1] deals with T1, Glutathione S-transferase omega-1 (Homo sapiens, UniProt P78417).
T1 sequence (P78417 whole entry): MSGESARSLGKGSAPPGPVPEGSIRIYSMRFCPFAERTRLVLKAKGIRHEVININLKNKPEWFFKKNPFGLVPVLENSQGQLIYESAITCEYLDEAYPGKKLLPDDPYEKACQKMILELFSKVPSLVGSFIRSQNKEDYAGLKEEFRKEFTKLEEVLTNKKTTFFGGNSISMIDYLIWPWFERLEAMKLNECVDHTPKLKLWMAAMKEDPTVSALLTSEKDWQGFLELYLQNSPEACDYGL
Briefly: Inhibition of CMFDA binding to human N-terminal 6x-His-tagged GSTO1-1 preincubated for 30 mins followed by CMFDA addition and measured after 30 mins by in-gel fluorescence binding assay.

Another series relates to HCT-116. In words: cells. As to conditions: Homo sapiens, HCT-116, 72 h.
Series [2] is described as follows: Metabolic stability in mouse liver microsomes at 1 uM in presence of NADPH incubated for 30 mins by LC-MS/MS analysis. Format: ADME, Microsome. The note with it: read-out: Stability. On the technique in general: Microsomes from liver hold many membrane-bound enzymes, among them those of drug oxidation.
Series [3] can be described thus: Metabolic stability in mouse liver microsomes at 1 uM in presence of NADPH incubated for 0 mins by LC-MS/MS analysis. Format: ADME, Microsome. As to conditions: read-out: Stability.
Series [4] can be described thus: Metabolic stability in mouse liver microsomes at 1 uM in presence of NADPH incubated for 10 mins by LC-MS/MS analysis. As to conditions: read-out: Stability. Format: ADME, Microsome.
The nature of series [5]: Metabolic stability in human liver microsomes at 1 uM in presence of NADPH incubated for 60 mins by LC-MS/MS analysis. Format: ADME, Microsome. As to conditions: read-out: Stability.
The nature of series [6]: Metabolic stability in human liver microsomes at 1 uM in presence of NADPH incubated for 30 mins by LC-MS/MS analysis. Format: ADME, Microsome. The note with it: read-out: Stability.
Series [7] is described as follows: Stability of the compound in 20% acetonitrile/PBS buffer at room temperature by LC-MS/MS analysis. Format: physicochemical.
Series [8] in a line: Half life in human liver microsomes at 1 uM in presence of NADPH by LC-MS/MS analysis. Format: ADME, Microsome.
Series [9] is described as follows: Metabolic stability in human liver microsomes at 1 uM in presence of NADPH incubated for 15 mins by LC-MS/MS analysis. Format: ADME, Microsome. As to conditions: read-out: Stability.
Series [10] can be described thus: Metabolic stability in mouse liver microsomes at 1 uM in presence of NADPH incubated for 5 mins by LC-MS/MS analysis. Format: ADME, Microsome. As to conditions: read-out: Stability.
A short description of series [11]: Metabolic stability in human liver microsomes at 1 uM in presence of NADPH incubated for 45 mins by LC-MS/MS analysis. Format: ADME, Microsome. The note with it: read-out: Stability.
A short description of series [12]: Half life in mouse liver microsomes at 1 uM in presence of NADPH by LC-MS/MS analysis. Format: ADME, Microsome.
Series [13] can be described thus: Metabolic stability in human liver microsomes at 1 uM in presence of NADPH incubated for 0 mins by LC-MS/MS analysis. Format: ADME, Microsome. The note with it: read-out: Stability.
Series [14] can be described thus: Metabolic stability in human liver microsomes at 1 uM in presence of NADPH incubated for 5 mins by LC-MS/MS analysis. As to conditions: read-out: Stability. Format: ADME, Microsome.
The nature of series [15]: Metabolic stability in human liver microsomes at 1 uM in presence of NADPH incubated for 10 mins by LC-MS/MS analysis. Format: ADME, Microsome. The note with it: read-out: Stability.
Series [16] in a line: Metabolic stability in mouse liver microsomes at 1 uM in presence of NADPH incubated for 45 mins by LC-MS/MS analysis. Format: ADME, Microsome. As to conditions: read-out: Stability.
A short description of series [17]: Metabolic stability in mouse liver microsomes at 1 uM in presence of NADPH incubated for 15 mins by LC-MS/MS analysis. Format: ADME, Microsome. As to conditions: read-out: Stability.
Series [18] is described as follows: Metabolic stability in mouse liver microsomes at 1 uM in presence of NADPH incubated for 60 mins by LC-MS/MS analysis. Format: ADME, Microsome. As to conditions: read-out: Stability.

Description for HCT-116: Antiproliferative activity against human HCT116 cells after 72 hrs by MTT assay

On to `C=CC(=O)N1CCC(c2ccccc2)CC1`, for which the IC50 (in general, the concentration that inhibits the measured activity by half) in the series with HT-29 was greater than 30 µM; in series [1], greater than 10 µM; with HCT-116, greater than 30 µM.

Regarding `C=CC(=O)Nc1cnn(Cc2ccccc2)c1`, the IC50 with HT-29 is greater than 30 µM; in [1], greater than 10 µM; in the series with HCT-116, greater than 30 µM.

`C=CC(=O)Nc1cnn(-c2ccccc2)c1`: the figures for the IC50 (in the series with HT-29; in [1]; in the series with HCT-116) were greater than 30 µM, greater than 10 µM and greater than 30 µM, respectively.

Consider `COC(=O)/C=C/CNc1ccc(Cl)c(S(=O)(=O)N(C)C)c1`, for which the IC50 with HT-29 is greater than 30 µM; in series [1], greater than 10 µM; with HCT-116, greater than 30 µM.

Take `C=CC(=O)N1CCC(Cc2ccccc2)CC1`: the results for the 50% inhibitory concentration (IC50) (with HT-29; in series [1]; with HCT-116) were greater than 30 µM, greater than 10 µM and greater than 30 µM, respectively.

`C=CC(=O)N(Cc1cc(C)no1)c1nc(-c2ccccc2O)cs1`: the remaining at 0.5 h, 1 µM came to 8% in [2] and 3.7% in series [6]. For the same compound, the remaining at 0 h, 1 µM in series [3] and in series [13] was 100% each time. The remaining at 10 min, 1 µM in series [4] came out at 12%; in series [15], 7.41%. The results for the remaining at 1 h, 1 µM in [5] and in series [18] were 3.7% and 4%, respectively. Further, in series [7], the Stability result was “Stable”. In addition, the t1/2 in series [8] was found to be 1.89 min; in series [12], 1.81 min. Moreover, the remaining at […], 1 µM in series [9] was 3.7%; in series [17], 12%. The remaining at 5 min, 1 µM in series [10] amounted to 16%; in series [14], 14.8%. Further, the remaining at 0.75 h, 1 µM in [11] was 3.7%; in series [16] it was 4%.

Regarding `C=CC(=O)Nc1nc(-c2ccccc2OC)cs1`, the half-inhibitory concentration (IC50) was greater than 30 µM in the series on HT-29, greater than 10 µM in series [1] and greater than 30 µM in the series with HCT-116.

As for `C=CC(=O)Nc1nc(-c2ccc(O)cc2)cs1`, the half-maximal inhibitory concentration (IC50) was 6.1 to 13.5 µM in the series on HT-29, greater than 10 µM in series [1] and 7.1 to 12.5 µM with HCT-116.

On to `C=CC(=O)Nc1nc(-c2ccc(Cl)cc2)cs1`, for which the Stability entry in [7] was “Stable”. For the same compound, the t1/2 in [8] was 9.52 min; in series [12], 3.21 min.
